Numbers after ± are expanded uncertainties.
Columns and labels:
[1] = 298.15 K; Liquid; Calvet microcalorimetry
[2] = molar enthalpy of vaporization or sublimation; conditions: 298.15 K; Liquid; Calvet microcalorimetry

molar enthalpy of vaporization [1] | molar enthalpy [2] | Compound
13.5 ± 0.621 kcal/mol |  | CCOC(=O)c1cccs1 [ethyl 2-thiophenecarboxylate]
 | 15.1 ± 0.621 kcal/mol | CCOC(=O)Cc1ccsc1 [ethyl 3-thiopheneacetate]
13.8 ± 0.574 kcal/mol |  | COC(=O)c1cccs1 [methyl 2-thiophenecarboxylate]
 | 14.8 ± 0.621 kcal/mol | CCOC(=O)Cc1cccs1 [ethyl 2-thiopheneacetate]
